Refractive index data for five compounds are collected here from the NIST ThermoML archive (doi:10.1016/j.jct.2011.06.016).

A short description of this series: refractive index (Na D-line) (dimensionless). As to conditions: 101.33 kPa, Liquid, Standard Abbe refractometry.

Numbers after ± are expanded uncertainties.

As usually defined, the refractive index is a measure of how strongly the sample bends light. With `CCCCCCCCCCCCCCCCCC(=O)OCC` [ethyl octadecanoate], where the note is “313.15 K”, the refractive index is recorded as 1.436 ± 0.001. As for `O` [water], the refractive index (298.15 K) is reported as 1.333 ± 0.001. Same read-out and setting: under `OCC(O)CO` [glycerol] stands 1.471 ± 0.001; under `CCO` [ethanol], 1.3625 ± 0.0007. Still for that read-out and setting: then `CCCCCCCCCCCCCCCC(=O)OCC` [ethyl hexadecanoate], with 1.437 ± 0.001.
